According to US7402548B2, “Benzoxazole compounds, process for producing the same and herbicides” (Kyoyu Agri Co., Ltd., priority 2000, dated 2008):

Legend:
green foxtail [1] = assay: Soil treatment test for upland field; type: in vivo, Setaria viridis; set-up: key: 0 = normal development, 5 = all killed; conditions: 500 g/ha, 3 weeks, glass house 25° C.
Outline: (§1)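 Pre-emergence soil spray, 500 g/ha, WP formulation in water + 0.05% surfactant; alluvial soil; glasshouse, avg 25° C, 3 wk. Score 0 (normal) to 5 (all killed) vs untreated.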

livid amaranth [2] = assay: Soil treatment test for upland field; type: in vivo, Amaranthus lividus; set-up: key: 0 = normal development, 5 = all killed; conditions: 500 g/ha, 3 weeks, glass house 25° C.
Outline: as §1

blackgrass [3] = assay: Foliar spread test for upland field; type: in vivo, Alopecurus aegualis; set-up: key: 0 = normal development, 5 = all killed (6 ranks vs. untreated); conditions: foliar spray, 500 ppm, 3 weeks, glass house 25° C.
Outline: (§2)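 Scores on a 0–5 scale (0 normal development, 5 all killed), relative to untreated controls, were taken 3 weeks post-treatment in a 25 °C glass house. Treatment was a uniform foliar spray at 500 ppm (0.5% surfactant) onto roughly 2-week-old soil-grown plants.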

solgum [4] = assay: Foliar spread test for upland field; type: in vivo; set-up: key: 0 = normal development, 5 = all killed (6 ranks vs. untreated); conditions: foliar spray, 500 ppm, 3 weeks, glass house 25° C.
Outline: as §2

wheat [5] = assay: Foliar spread test for upland field; type: in vivo; set-up: key: 0 = normal development, 5 = all killed (6 ranks vs. untreated); conditions: foliar spray, 500 ppm, 3 weeks, glass house 25° C.
Outline: as §2

sugar beat [6] = assay: Foliar spread test for upland field; type: in vivo; set-up: key: 0 = normal development, 5 = all killed (6 ranks vs. untreated); conditions: foliar spray, 500 ppm, 3 weeks, glass house 25° C.
Outline: as §2

corn [7] = assay: Foliar spread test for upland field; type: in vivo; set-up: key: 0 = normal development, 5 = all killed (6 ranks vs. untreated); conditions: foliar spray, 500 ppm, 3 weeks, glass house 25° C.
Outline: as §2

cotton = assay: Foliar spread test for upland field; type: in vivo; set-up: key: 0 = normal development, 5 = all killed (6 ranks vs. untreated); conditions: foliar spray, 500 ppm, 3 weeks, glass house 25° C.
Outline: as §2

soybean [8] = assay: Foliar spread test for upland field; type: in vivo; set-up: key: 0 = normal development, 5 = all killed (6 ranks vs. untreated); conditions: foliar spray, 500 ppm, 3 weeks, glass house 25° C.
Outline: as §2

morning glory [9] = assay: Soil treatment test for upland field; type: in vivo, Ipomoea spps.; set-up: key: 0 = normal development, 5 = all killed; conditions: 500 g/ha, 3 weeks, glass house 25° C.
Outline: as §1

morning glory [10] = assay: Foliar spread test for upland field; type: in vivo, Ipomoea spps.; set-up: key: 0 = normal development, 5 = all killed (6 ranks vs. untreated); conditions: foliar spray, 500 ppm, 3 weeks, glass house 25° C.
Outline: as §2

barnyardgrjass = assay: Foliar spread test for upland field; type: in vivo, Eschinochloa crusgalli; set-up: key: 0 = normal development, 5 = all killed (6 ranks vs. untreated); conditions: foliar spray, 500 ppm, 3 weeks, glass house 25° C.
Outline: as §2

common lambsquarters [11] = assay: Foliar spread test for upland field; type: in vivo, Chenopodium album; set-up: key: 0 = normal development, 5 = all killed (6 ranks vs. untreated); conditions: foliar spray, 500 ppm, 3 weeks, glass house 25° C.
Outline: as §2

velvetleaf [12] = assay: Soil treatment test for upland field; type: in vivo, Abutilon theophrasti; set-up: key: 0 = normal development, 5 = all killed; conditions: 500 g/ha, 3 weeks, glass house 25° C.
Outline: as §1

velvetleaf [13] = assay: Foliar spread test for upland field; type: in vivo, Abutilon theophrasti; set-up: key: 0 = normal development, 5 = all killed (6 ranks vs. untreated); conditions: foliar spray, 500 ppm, 3 weeks, glass house 25° C.
Outline: as §2

annual bluegrass [14] = assay: Foliar spread test for upland field; type: in vivo, Poa annua; set-up: key: 0 = normal development, 5 = all killed (6 ranks vs. untreated); conditions: foliar spray, 500 ppm, 3 weeks, glass house 25° C.
Outline: as §2

solgum [15] = assay: Soil treatment test for upland field; type: in vivo; set-up: key: 0 = normal development, 5 = all killed; conditions: 500 g/ha, 3 weeks, glass house 25° C.
Outline: as §1

wheat [16] = assay: Soil treatment test for upland field; type: in vivo; set-up: key: 0 = normal development, 5 = all killed; conditions: 500 g/ha, 3 weeks, glass house 25° C.
Outline: as §1

sugar beat [17] = assay: Soil treatment test for upland field; type: in vivo; set-up: key: 0 = normal development, 5 = all killed; conditions: 500 g/ha, 3 weeks, glass house 25° C.
Outline: as §1

corn [18] = assay: Soil treatment test for upland field; type: in vivo; set-up: key: 0 = normal development, 5 = all killed; conditions: 500 g/ha, 3 weeks, glass house 25° C.
Outline: as §1

soybean [19] = assay: Soil treatment test for upland field; type: in vivo; set-up: key: 0 = normal development, 5 = all killed; conditions: 500 g/ha, 3 weeks, glass house 25° C.
Outline: as §1

Cyperus serotinus Rottb. = assay: Herbicidal test for paddy field; type: in vivo; conditions: 500 g/ha, dropwise addition to paddy water at 1.5 leaf stage of barnyard grass; glass house 25° C., 3 weeks; rank 0-5 vs non-treated district
Description: (§3) Wagner pots, each having an area of 1/5000 are, were packed with Ube soil (alluvial soil) and planted with seeds or tubers of young rice plant, barnyard grass, bulrush, Cyperus serotinus Rottb., arrowhead and monochoria. Then, the pots were filled with water to a depth of 3 cm.
(§4) Each wettable powder of the desired Compounds (I) shown in Tables 1 to 21, 24, 25, 28 and 29 prepared in accordance with Example 2 was diluted with water containing a surfactant (0.05%) and subjected to dropwise addition treatment by using pipet so that an effective concentration of the compound (I) in each herbicide became 500 g/ha at 1.5 leaf stage of barnyard grass.
(§5) These plants were controlled in a glass house at an average temperature of 25° C. for 3 weeks, and then herbicidal effects thereof were investigated.
(§6) The herbicidal effects are evaluated according to the following 6 ranks as compared with non-treated district. (0: normal development, 1: Less damaged, 2: Slightly damaged, 3: Moderately damaged, 4: Severely damaged, 5: All killed). Incidentally, “-” in the column means not investigated.

annual bluegrass [20] = assay: Soil treatment test for upland field; type: in vivo, Poa annua; set-up: key: 0 = normal development, 5 = all killed; conditions: 500 g/ha, 3 weeks, glass house 25° C.
Outline: as §1

common lambsquarters [21] = assay: Soil treatment test for upland field; type: in vivo, Chenopodium album; set-up: key: 0 = normal development, 5 = all killed; conditions: 500 g/ha, 3 weeks, glass house 25° C.
Outline: as §1

Large crabgrass [22] = assay: Soil treatment test for upland field; type: in vivo, Digitaria adscendens; set-up: key: 0 = normal development, 5 = all killed; conditions: 500 g/ha, 3 weeks, glass house 25° C.
Outline: as §1

blackgrass [23] = assay: Soil treatment test for upland field; type: in vivo, Alopecurus aegualis; set-up: key: 0 = normal development, 5 = all killed; conditions: 500 g/ha, 3 weeks, glass house 25° C.
Outline: as §1

barnyard grass [24] = assay: Soil treatment test for upland field; type: in vivo, Eschinochloa crusgalli; set-up: key: 0 = normal development, 5 = all killed; conditions: 500 g/ha, 3 weeks, glass house 25° C.
Outline: as §1

green foxtail [25] = assay: Foliar spread test for upland field; type: in vivo, Setaria viridis; set-up: key: 0 = normal development, 5 = all killed (6 ranks vs. untreated); conditions: foliar spray, 500 ppm, 3 weeks, glass house 25° C.
Outline: as §2

Large crabgrass [26] = assay: Foliar spread test for upland field; type: in vivo, Digitaria adscendens; set-up: key: 0 = normal development, 5 = all killed (6 ranks vs. untreated); conditions: foliar spray, 500 ppm, 3 weeks, glass house 25° C.
Outline: as §2

bulrush = assay: Herbicidal test for paddy field; type: in vivo, Scrips juncoides; conditions: 500 g/ha, dropwise addition to paddy water at 1.5 leaf stage of barnyard grass; glass house 25° C., 3 weeks; rank 0-5 vs non-treated district
Description: as §3, §4, §5, §6

barnyard grass [27] = assay: Herbicidal test for paddy field; type: in vivo, Eschinochloa crusgalli; conditions: 500 g/ha, dropwise addition to paddy water at 1.5 leaf stage of barnyard grass; glass house 25° C., 3 weeks; rank 0-5 vs non-treated district
Description: as §3, §4, §5, §6

livid amaranth [28] = assay: Foliar spread test for upland field; type: in vivo, Amaranthus lividus; set-up: key: 0 = normal development, 5 = all killed (6 ranks vs. untreated); conditions: foliar spray, 500 ppm, 3 weeks, glass house 25° C.
Outline: as §2

SMILES | Effects Green foxtail (green foxtail [1]) | Effects Livid amaranth (livid amaranth [2]) | Effects Blackgrass (blackgrass [3]) | Effects Solgum (solgum [4]) | Effects Wheat (wheat [5]) | Effects Sugar beat (sugar beat [6]) | Effects Morning glory (morning glory [9]) | Effects Velvetleaf (velvetleaf [12]) | Effects Solgum (solgum [15]) | Effects Wheat (wheat [16]) | Effects Sugar beat (sugar beat [17]) | Effects Corn (corn [18]) | Effects Soybean (soybean [19]) | Effects Annual bluegrass (annual bluegrass [20]) | Effects Common lambsquarters (common lambsquarters [21]) | Effects Large crabgrass (Large crabgrass [22]) | Effects Blackgrass (blackgrass [23]) | Effects Barnyardgrass (barnyard grass [24]) | Effects Bulrush (bulrush) | Effects Barnyardgrass (barnyard grass [27]) | other results
CCC(=Cc1cccc(C(F)(F)F)c1)c1nc2cc(C#N)ccc2o1 [I-c-81] | 5 | 5 | 3 | 3 | 2 | 4 | 5 | 5 | 2 | 3 | 5 | 2 | 3 | 5 | 5 | 5 | 5 | 5 | 5 | 5 | Effects Corn (corn [7]): 3; Effects Sotton (cotton): 4; Effects Soybean (soybean [8]): 5; Effects Morning glory (morning glory [10]): 5; Effects Barnyardgrass (barnyardgrjass): 3; Effects Common lambsquarters (common lambsquarters [11]): 5; Effects Velvetleaf (velvetleaf [13]): 3; Effects Annual bluegrass (annual bluegrass [14]): 4; Effects Cyperus serotinus Rottb. (Cyperus serotinus Rottb.): 4; Effects Green foxtail (green foxtail [25]): 4; Effects Large crabgrass (Large crabgrass [26]): 4; Effects Livid amaranth (livid amaranth [28]): 5
CCC(=Cc1cccc(C(F)(F)F)c1)c1nc2cc(C#N)c(Cl)cc2o1 [I-c-143] | 5 | 5 |  |  |  |  | 5 | 5 | 3 | 1 | 5 | 1 | 3 | 5 | 5 | 5 | 4 | 4 | 5 | 5 | 
CCCC(=Cc1cccc(C(F)(F)F)c1)c1nc2cc(C#N)c(Cl)cc2o1 [I-c-145] | 5 | 5 | 2 | 2 | 2 | 3 | 5 | 5 | 1 | 1 | 5 | 0 | 0 | 5 | 5 | 5 | 5 | 4 | 3 | 4 | Effects Corn (corn [7]): 2; Effects Sotton (cotton): 4; Effects Soybean (soybean [8]): 5; Effects Morning glory (morning glory [10]): 5; Effects Barnyardgrass (barnyardgrjass): 2; Effects Common lambsquarters (common lambsquarters [11]): 5; Effects Velvetleaf (velvetleaf [13]): 3; Effects Annual bluegrass (annual bluegrass [14]): 3; Effects Green foxtail (green foxtail [25]): 5; Effects Large crabgrass (Large crabgrass [26]): 3; Effects Livid amaranth (livid amaranth [28]): 5
